{"source": "ChEMBL document CHEMBL4354827", "about": "“Discovery of Novel, Potent, Brain-Permeable, and Orally Efficacious Positive Allosteric Modulator of α7 Nicotinic Acetylcholine Receptor [4-(5-(4-Chlorophenyl)-4-methyl-2-propionylthiophen-3-yl)benzenesulfonamide]: Structure-Activity Relationship and Preclinical Characterization” (J Med Chem, 2020)", "key": {"[1]": {"experiment": "AUClast in Beagle dog at 1 mg/kg, iv after 0.083 to 144 hrs by LC-MS/MS analysis", "type": "ADME, organism-based, Canis lupus familiaris", "design": "dose 1 mg/kg, time 0.083-144 hr, route intravenous", "conditions": "in vivo; call rule not given here"}, "Rattus norvegicus [2]": {"tested_on": "Rattus norvegicus", "experiment": "Memory enhancement effect in scopolamine-induced Wistar rat model of amnesia assessed as increase in exploration time for novel object in retention trial at 0.5 mg/kg, po administered as single dose and measured on day 9 by novel object recognition test (reference value: 12.09 sec)", "type": "functional"}, "[3]": {"experiment": "Elimination half life in human at 7.5 to 100 mg", "type": "ADME", "conditions": "read-out: beta t1/2"}, "Rattus norvegicus [4]": {"tested_on": "Rattus norvegicus", "experiment": "Memory enhancement effect in scopolamine-induced Wistar rat model of amnesia assessed as increase in novel object discrimination index at 0.05 mg/kg, po administered as single dose and measured on day 9 by novel object recognition test (reference value: 0.21)", "type": "functional"}, "[5]": {"experiment": "Drug level in scopolamine-induced Sprague-Dawley rat brain at 0.05 mg/kg, po for 7 days", "type": "ADME, organism-based", "conditions": "read-out: Drug uptake"}, "Rattus norvegicus [6]": {"tested_on": "Rattus norvegicus", "experiment": "Memory enhancement effect in time-delay induced Wistar rat model of amnesia assessed as exploration time for object2 in acquisition trial at 0.05 mg/kg, po for 7 days and measured on day 8 by novel object recognition test (reference value: 11.76 sec)", "type": "functional"}, "Rattus norvegicus [7]": {"tested_on": "Rattus norvegicus", "experiment": "Memory enhancement effect in scopolamine-induced Wistar rat model of amnesia assessed as exploration time for familiar object in retention trial at 0.5 mg/kg, po for 7 days and measured on day 8 by novel object recognition test (reference value: 8.59 sec)", "type": "functional"}, "Rattus norvegicus [8]": {"tested_on": "Rattus norvegicus", "experiment": "Improvement in social recognition scopolamine-induced Sprague-Dawley rat model of amnesia assessed as increase in reduction in social investigation time at 1 mg/kg, po administered as single dose prior to 1 hr training and measured after 30 mins (reference value: 9.81%)", "type": "functional", "design": "scale not given: the % may be the effect or the level left"}, "[9]": {"experiment": "Cmax in human at 7.5 to 100 mg after 1 to 2.5 hrs", "type": "ADME", "conditions": "in vivo"}, "Rattus norvegicus [10]": {"tested_on": "Rattus norvegicus", "experiment": "Memory enhancement effect in time-delay induced Wistar rat model of amnesia assessed as exploration time for familiar object in retention trial at 3 mg/kg, po administered as single dose and measured on day 9 by novel object recognition test (reference value: 13.05 sec)", "type": "functional"}, "Rattus norvegicus [11]": {"tested_on": "Rattus norvegicus", "experiment": "Improvement in social recognition scopolamine-induced Sprague-Dawley rat model of amnesia assessed as reduction in recognition index at 1 mg/kg, po administered as single dose prior to 1 hr training and measured after 30 mins (reference value: 0.9)", "type": "functional"}, "Rattus norvegicus [12]": {"tested_on": "Rattus norvegicus", "experiment": "Memory enhancement effect in time-delay induced Wistar rat model of amnesia assessed as exploration time for object1 in acquisition trial at 0.15 mg/kg, po for 7 days and measured on day 8 by novel object recognition test (reference value: 13.73 sec)", "type": "functional"}, "Cytochrome P450 2C9": {"molecular_target": "Cytochrome P450 2C9 (Homo sapiens, UniProt P11712)", "sequence (P11712 whole entry)": "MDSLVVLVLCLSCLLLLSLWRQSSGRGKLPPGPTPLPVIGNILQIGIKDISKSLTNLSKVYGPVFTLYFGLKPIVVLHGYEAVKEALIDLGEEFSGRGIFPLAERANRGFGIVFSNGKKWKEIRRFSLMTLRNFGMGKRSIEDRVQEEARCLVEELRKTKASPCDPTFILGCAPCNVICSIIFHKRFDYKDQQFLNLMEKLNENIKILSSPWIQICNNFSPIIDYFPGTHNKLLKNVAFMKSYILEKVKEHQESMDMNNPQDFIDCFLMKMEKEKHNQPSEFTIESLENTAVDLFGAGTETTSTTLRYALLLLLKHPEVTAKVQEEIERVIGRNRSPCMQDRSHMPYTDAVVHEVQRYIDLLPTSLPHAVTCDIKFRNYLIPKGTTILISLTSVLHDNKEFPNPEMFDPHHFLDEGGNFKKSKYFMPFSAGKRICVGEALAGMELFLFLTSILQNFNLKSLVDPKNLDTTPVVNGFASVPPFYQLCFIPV", "experiment": "Inhibition of CYP2C9 (unknown origin) up to 10 uM", "type": "ADME"}, "[13]": {"experiment": "Drug metabolism in mouse liver microsomes assessed as metabolic rate at 1 uM preincubated for 5 mins followed by NADPH addition after 30 mins by LC-MS/MS analysis", "type": "ADME, Microsome", "conditions": "0.5 h"}, "[14]": {"experiment": "Protein binding in dog plasma at 5 uM incubated for 16 hrs under shaking condition by LC/MS/MS based rapid equilibrium dialysis method", "type": "ADME, cell-free, Canis lupus familiaris", "conditions": "read-out: PPB (converted)"}, "[15]": {"experiment": "Ratio of AUCt in brain to plasma in Wistar rat at 10 mg/kg, po after 144 hrs by LC-MS/MS analysis", "type": "ADME, organism-based"}, "Rattus norvegicus [16]": {"tested_on": "Rattus norvegicus", "experiment": "Memory enhancement effect in time-delay induced Wistar rat model of amnesia assessed as increase in novel object discrimination index at 1 mg/kg, po administered as single dose and measured on day 9 by novel object recognition test (reference value: 0.03)", "type": "functional"}, "Rattus norvegicus [17]": {"tested_on": "Rattus norvegicus", "experiment": "Improvement in social recognition time delay-induced Sprague-Dawley rat model of amnesia assessed as increase in reduction in social investigation time at 3 mg/kg, po administered as single dose prior to 1 hr training and measured after 30 mins (reference value: 0.39%)", "type": "functional", "design": "scale not given: the % may be the effect or the level left"}, "Rattus norvegicus [18]": {"tested_on": "Rattus norvegicus", "experiment": "Improvement in social recognition scopolamine-induced Sprague-Dawley rat model of amnesia assessed as increase in reduction in social investigation time at 0.50 mg/kg, po for 7 days measured after 24 hrs (Rvb =6.59%)", "type": "functional", "design": "scale not given: the % may be the effect or the level left"}, "[19]": {"experiment": "Unbound brain-to-plasma concentration ratio in Wistar rat at 10 mg/kg, po after 1 hr by LC-MS/MS analysis", "type": "ADME, organism-based", "conditions": "read-out: K(p,uu,brain)"}, "Rattus norvegicus [20]": {"tested_on": "Rattus norvegicus", "experiment": "Memory enhancement effect in time-delay induced Wistar rat model of amnesia assessed as exploration time for object1 in acquisition trial at 0.05 mg/kg, po for 7 days and measured on day 8 by novel object recognition test (reference value: 13.73 sec)", "type": "functional"}, "[21]": {"experiment": "Tmax in Beagle dog at 1 mg/kg, iv after 0.083 to 144 hrs by LC-MS/MS analysis", "type": "ADME, organism-based, Canis lupus familiaris", "conditions": "in vivo"}, "Rattus norvegicus [22]": {"tested_on": "Rattus norvegicus", "experiment": "Memory enhancement effect in scopolamine-induced Wistar rat model of amnesia assessed as exploration time for novel object in retention trial at 0.15 mg/kg, po for 7 days and measured on day 8 by novel object recognition test (reference value: 12.09 sec)", "type": "functional"}, "Rattus norvegicus [23]": {"tested_on": "Rattus norvegicus", "experiment": "Memory enhancement effect in time-delay induced Wistar rat model of amnesia assessed as exploration time for object1 in acquisition trial at 0.5 mg/kg, po for 7 days and measured on day 8 by novel object recognition test (reference value: 13.73 sec)", "type": "functional"}, "Rattus norvegicus [24]": {"tested_on": "Rattus norvegicus", "experiment": "Memory enhancement effect in time-delay induced Wistar rat model of amnesia assessed as exploration time for familiar object at 3 mg/kg, po administered as single dose after acquisition trial by novel object recognition test (reference value: 10.6 sec)", "type": "functional"}, "[25]": {"experiment": "Tmax in Wistar rat plasma at 10 mg/kg, po after 1 to 144 hrs by LC-MS/MS analysis", "type": "ADME, organism-based"}, "Rattus norvegicus [26]": {"tested_on": "Rattus norvegicus", "experiment": "Memory enhancement effect in scopolamine-induced Wistar rat model of amnesia assessed as exploration time for familiar object in retention trial at 0.05 mg/kg, po administered as single dose and measured on day 9 by novel object recognition test (reference value: 8.59 sec)", "type": "functional"}, "Rattus norvegicus [27]": {"tested_on": "Rattus norvegicus", "experiment": "Memory enhancement effect in time-delay induced Wistar rat model of amnesia assessed as exploration time for object1 in acquisition trial at 1 mg/kg, po administered as single dose and measured on day 8 by novel object recognition test (reference value: 13.95 sec)", "type": "functional"}}}
{"smiles": "CCC(=O)c1sc(-c2ccc(Cl)cc2)c(C)c1-c1ccc(S(N)(=O)=O)cc1", "values": [{"measurement": "AUC(0-t)", "setting": "[1]", "value": 47, "unit": "µM·h"}, {"measurement": "Time", "setting": "Rattus norvegicus [2]", "value": 15.06, "unit": "s"}, {"measurement": "half-life", "setting": "[3]", "value": "15.5 to 77", "unit": "h"}, {"measurement": "Activity_index", "setting": "Rattus norvegicus [4]", "value": 0.3}, {"measurement": "concentration at 168 h", "setting": "[5]", "value": 250, "unit": "nM"}, {"measurement": "Time", "setting": "Rattus norvegicus [6]", "value": 15.41, "unit": "s"}, {"measurement": "Time", "setting": "Rattus norvegicus [7]", "value": 6.63, "unit": "s"}, {"measurement": "Activity", "setting": "Rattus norvegicus [8]", "value": 48.49, "unit": "%"}, {"measurement": "Cmax", "setting": "[9]", "value": "25.1 to 1620", "unit": "ng/mL"}, {"measurement": "Time", "setting": "Rattus norvegicus [10]", "value": 8.92, "unit": "s"}, {"measurement": "Activity_index", "setting": "Rattus norvegicus [11]", "value": 0.52}, {"measurement": "Time", "setting": "Rattus norvegicus [12]", "value": 10.95, "unit": "s"}, {"measurement": "inhibition (INH)", "setting": "Cytochrome P450 2C9", "value": "Not Active"}, {"measurement": "Drug metabolism", "setting": "[13]", "value": 0.01, "unit": "nmol/min/mg"}, {"measurement": "fraction unbound at 16 h, 5 µM", "setting": "[14]", "value": 0.0031}, {"measurement": "Kp at 144 h", "setting": "[15]", "value": 9}, {"measurement": "Activity_index", "setting": "Rattus norvegicus [16]", "value": 0.44}, {"measurement": "Activity", "setting": "Rattus norvegicus [17]", "value": 52.87, "unit": "%"}, {"measurement": "Activity", "setting": "Rattus norvegicus [18]", "value": 25.35, "unit": "%"}, {"measurement": "Kp uu at 1 h", "setting": "[19]", "value": 0.56}, {"measurement": "Time", "setting": "Rattus norvegicus [20]", "value": 15.2, "unit": "s"}, {"measurement": "Tmax", "setting": "[21]", "value": 0.25, "unit": "h"}, {"measurement": "Time", "setting": "Rattus norvegicus [22]", "value": 12.8, "unit": "s"}, {"measurement": "Time", "setting": "Rattus norvegicus [23]", "value": 10.04, "unit": "s"}, {"measurement": "Time", "setting": "Rattus norvegicus [24]", "value": 5.9, "unit": "s"}, {"measurement": "Tmax", "setting": "[25]", "value": 1, "unit": "h"}, {"measurement": "Time", "setting": "Rattus norvegicus [26]", "value": 8.03, "unit": "s"}, {"measurement": "Time", "setting": "Rattus norvegicus [27]", "value": 23.61, "unit": "s"}]}
